Laboratory results published in US9943501B2 (KOJUN JAPAN CO., LTD., priority 2014, dated 2018).

What was measured:
[1] = biological target: T1, human-derived PPARγ ligand-binding domain (Homo sapiens, UniProt P37231); assay: PPARγ activation test (GAL4 chimera / luciferase reporter in CV-1 cells); assay type: cell-based; conditions: for PPARγ ligand activity, ratio (%) of the activity of each synthesized product to the activity of the control substance (DMSO): control = 100
T1 construct: expressed in transfected cells; host or cells: CV-1 cells (African green monkey kidney-derived)
T1 sequence (P37231 238-503 limits assumed): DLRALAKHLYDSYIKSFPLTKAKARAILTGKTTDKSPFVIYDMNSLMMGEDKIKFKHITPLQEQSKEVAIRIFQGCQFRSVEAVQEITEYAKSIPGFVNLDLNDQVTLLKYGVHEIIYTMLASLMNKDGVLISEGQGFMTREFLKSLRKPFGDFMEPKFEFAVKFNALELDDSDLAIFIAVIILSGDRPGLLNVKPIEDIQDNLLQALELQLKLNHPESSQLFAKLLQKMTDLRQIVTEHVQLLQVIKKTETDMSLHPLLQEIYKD
Description: A measurement method for the PPAR activation test in Examples below were conducted as described below.
(1) PPARγ Activation Test
A plasmid pM-PPARγ for the expression of a chimeric protein composed of a human-derived PPARγ ligand-binding domain and a DNA-binding domain of a yeast-derived GAL4 transcription factor, and a plasmid p4×UASg-tk-luc containing a Cypridina-derived luciferase structural gene linked downstream of a GAL4 responsive sequence designed such that its expression was controlled by this chimeric protein, were prepared. Also, a Renilla-derived luciferase expression plasmid pRL-CMV having a viral expression promoter for constitutive intracellular expression was prepared as a plasmid for the correction of transfection efficiency. On the other hand, DMEM containing 10% FBS was used as a medium for CV-1 cells (African green monkey kidney-derived). The CV-1 cells were seeded at 4.5×10^5 cells over a 100-mm Petri dish and cultured in an incubator at 37° C. in a 5% CO2 environment.
(1-2) Transformation of CV-1 Cell
The CV-1 cells thus cultured for 24 hours were cotransfected with 2.0 μg of pM-PPARγ, 4.0 μg of p4×UASg-tk-luc, and 0.04 μg of pRL-CMV to transform the CV-1 cells. The transformation was carried out by the liposome method using LipofectAMINE(R) Reagent (a product of Invitrogen Corp.). After the transformation operation, the cells were cultured at 37° C. for 3.5 hours in a 5% CO2 environment.
(1-3) Addition of Test Sample
The CV-1 cells thus incubated were recovered by trypsin treatment, and […] thereof was inoculated at a concentration of 1×10^5 cells/mL to a 96-well plate. Each test sample was diluted with DMEM containing 4% FBS to adjust its concentration to twice the final concentration, and […] thereof was added to the 96-well plate mentioned above. DMSO was used as a control substance. After the addition of the test sample or the control substance (DMSO), the mixture was incubated at 37° C. for 24 hours in a 5% CO2 environment.
(1-4) Measurement of Luciferase Activity
The luciferase activity was measured using Dual-Luciferase(R) Reporter Assay System (a product of Promega K.K.). The culture solution was removed from the 96-well plate. The cells were washed with PBS(−), and moisture was removed therefrom using a paper towel. To the cells, […] of a cell lysis solution (Passive Lysis Buffer) was added, and the 96-well plate was shaken for 15 minutes. The cell extract was transferred at […] to a 96-well luminoplate. A luminescent substrate solution was added thereto at […]. The luminescence intensity based on the luciferase was measured for a measurement time set to 10 seconds using a luminometer (Micro Lumat Plus, a product of Berthold Japan Co., Ltd.).
The PPARγ-activating effect of the test sample was evaluated on the basis of a ratio (%) relative to controls. In order to correct transfection efficiency, the measured Cypridina luciferase activity value (A) was divided by the measured Renilla luciferase activity value (B) to determine a value (A/B). The average A/B value of the control group was calculated and defined as 100. The A/B value of the test sample was calculated, and the ratio (%) of this value to the average value of the controls was used as the ability of the test sample to activate PPARγ.
Their PPARγ ligand activity was measured in the same way as in Example 7 except that the incubation time after the test sample addition was set to 48 hours. The values shown in the table below and the ordinate of the drawing depict the ratio (%) of the activity of each synthesized product to the activity of the control substance (DMSO). In Table 1 and FIG. 13, these various butenolide compounds used as test samples were each indicated by the functional group of R^2 in the formula (1).

[2] = test system: C57BL/6J mice fed with a high-fat diet; assay: Amounts of subcutaneous fat and visceral fat in dietary-induced obesity mouse model; assay type: in vivo; conditions: 85 days, relative to increase in control group over normal group
Description: For each individual of the male C57BL/6J mice after lapse of 85 days into the test of Example 9, blood was collected under anesthesia with 2% isoflurane, and the mice were then euthanized. Inguinal subcutaneous fat, epididymal fat, perirenal fat, and mesenteric fat were collected from each individual. The weight of each fat was measured, and the average fat weights of each test group were determined.
The ordinate of the drawing depicts the measured weight (g) of each fat tissue. Each bar of the bar graph indicates the normal group, the control group, the 5H4PB 0.037 μg/kg/day administration group, the 5H4PB 0.01 mg/kg/day administration group, the rosiglitazone 0.037 μg/kg/day administration group, and the rosiglitazone 10 mg/kg/day administration group from the left to the right. […] Specifically, increase in the amount of each fat tissue was inhibited by approximately 35% for the inguinal subcutaneous fat, approximately 18% for the epididymal fat, approximately 13% for the perirenal fat, and approximately 16% for the mesenteric fat in the test group administered 0.037 μg/kg/day of 5H4PB, while increase in the amount of each fat tissue was inhibited by approximately 34% for the inguinal subcutaneous fat, approximately 15% for the epididymal fat, approximately 13% for the perirenal fat, and approximately 40% for the mesenteric fat in the test group administered 0.01 […] of 5H4PB, with respect to the amount of each fat tissue increased in the control group due to the high-calorie diet (the value determined by subtracting the fat tissue weight of the normal group from the fat tissue weight of the control group). Thus, 5H4PB administered at a low dose was confirmed to have subcutaneous fat and visceral fat accumulation inhibitory effects.

[3] = test system: liver (hepatocytes) of C57BL/6J mice fed with a high-fat diet; assay: Influence of administration on liver tissue (histopathological examination); assay type: in vivo, mouse; conditions: for deposition of fat droplets in the hepatocytes: 12 weeks, high-fat diet
From the text: In Example 13, the liver was collected during the collection of fat tissues from each individual and histopathologically examined. The findings from the histopathological examination were as described below.
For the individuals of the normal group, the deposition of fat droplets was not observed in the hepatocytes, whereas only the very mild infiltration of inflammatory cells was observed.

[4] = 0.01 μg/kg/day (so in the source)

## O=C1C=C(c2ccccc2)C(O)O1 (stereo not drawn) [5H4PB, 5-hydroxy-4-phenylbutenolide]
[1]; Example 8, incubation 48 hours, Table 1 and FIG. 13
  PPARγ ligand activity of butenolide compounds (in words): high activity in a low concentration range
[1]; final concentration 3.5 μM, incubation 24 hours, FIG. 12
  PPARγ ligand activity of synthesized product: high PPARγ ligand activity
[1]; test sample concentration 0.032 μg/mL, incubation 48 hours
  PPARγ ligand activity, ratio (%) of the activity of each synthesized product to the activity of the control substance (DMSO): 100%
[1]; test sample concentration 0.08 μg/mL, incubation 48 hours
  PPARγ ligand activity, ratio (%) of the activity of each synthesized product to the activity of the control substance (DMSO): 80%
[1]; test sample concentration 0.16 μg/mL, incubation 48 hours
  PPARγ ligand activity, ratio (%) of the activity of each synthesized product to the activity of the control substance (DMSO): 120%
[1]; test sample concentration 0.4 μg/mL, incubation 48 hours
  PPARγ ligand activity, ratio (%) of the activity of each synthesized product to the activity of the control substance (DMSO): 120%
[1]; test sample concentration 0.8 μg/mL, incubation 48 hours, * = twice or more vs control, p<0.05
  PPARγ ligand activity, ratio (%) of the activity of each synthesized product to the activity of the control substance (DMSO): 220* %
[1]; test sample concentration 2 μg/mL, incubation 48 hours, * = twice or more vs control, p<0.05
  PPARγ ligand activity, ratio (%) of the activity of each synthesized product to the activity of the control substance (DMSO): 370* %
[1]; test sample concentration 4 μg/mL, incubation 48 hours, * = twice or more vs control, p<0.05
  PPARγ ligand activity, ratio (%) of the activity of each synthesized product to the activity of the control substance (DMSO): 520* %
[1]; test sample concentration 10 μg/mL, incubation 48 hours, * = twice or more vs control, p<0.05
  PPARγ ligand activity, ratio (%) of the activity of each synthesized product to the activity of the control substance (DMSO): 710* %
[2]; [4]
  increase in the amount of epididymal fat inhibited: approximately 15%
  increase in the amount of inguinal subcutaneous fat inhibited: approximately 34%
  increase in the amount of mesenteric fat inhibited: approximately 40%
  increase in the amount of perirenal fat inhibited: approximately 13%
[2]; 0.037 μg/kg/day
  increase in the amount of epididymal fat inhibited: approximately 18%
  increase in the amount of inguinal subcutaneous fat inhibited: approximately 35%
  increase in the amount of mesenteric fat inhibited: approximately 16%
  increase in the amount of perirenal fat inhibited: approximately 13%
[3]; 0.037 μg/kg/day
  deposition of fat droplets in the hepatocytes: no or only weak depositions of fat droplets
[3]; 0.01 mg/kg/day
  deposition of fat droplets in the hepatocytes: no or only weak depositions of fat droplets
[3]; compared with the rosiglitazone administration groups or the control group
  hepatic damage (histopathological findings): free from hepatic damage
